Data from patent publication US9657073B2, “Inhibitors of Bcl-2” (Case Western Reserve University, priority 2010, dated 2017).
pIC50: −log10 of the molar value. Where no end group is shown, it is not given here.

What was measured:
Bcl-2 = Bcl-2 (Homo sapiens, UniProt P10415); test: Biotin-streptavidin pulldown assay; format: binding; details: 200 μM biotin-peptide, lysate of WEHI7.2 cells overexpressing wild type Bcl-2
Method: WEHI7.2 cells overexpressing wild type Bcl-2 were washed twice with PBS and incubated on ice for 30 min in 400 ul CHAPS lysis buffer (50 mM Tris-HCL pH 7.5, 100 mM NaCL, 2 mM EDTA, 1% CHAPS, 50 mM NaF, 1 mM Na3VO4, protease inhibitor cocktail, PhosSTOP). Cell lysates were centrifuged for 15 min at 20,000 g at 4 C and the supernatant (protein concentration 5 mg/ml) was continuously rotated with 200 μM biotin-Scr or biotin-IDPDD/AA, or without peptide, at 4 C for 16 hr. Streptavidin Sepharose beads ([…]) (Pierce Pull-Down Biotinylated Protein:Protein Interaction Kit, Thermo, Cat #21115) were washed three times with tris buffered saline (25 mM Tris.HCL, 0.15M NaCl, pH 7) and then added to 400 μl cell lysate, followed by rotation for 2 hours at 4 C. After this, the beads were washed four times with tris buffered saline, centrifuging for 30-60 second each time. The beads were then incubated for 3-5 min at room temperature with 50 μl elution buffer provided with the Pierce pulldown kit (above) and centrifuged at 1,250×g for 30-60 seconds. The supernatant was boiled in SDS-PAGE sample buffer for 5 min and western blotting for Bcl-2 was performed as described above.

[1] = system: IP3R-mediated Ca2+ release inhibited by BH4-Bcl-2; test: Unidirectional 45Ca2+-flux assay in permeabilized MEF cells; format: cell-based; details: 40 μM IDPDD/AA, 40 μM BH4-Bcl-2 peptide, 3 μM IP3, FIG. 7
Method: Twelve-well clusters containing MEF cells were fixed on a thermostated plate at 30° C. on a mechanical shaker. The culture medium was aspirated, and the cells were permeabilized by incubating them for 10 min in a solution containing 120 mM KCl, 30 mM imidazole-HCl (pH 6.8), 2 mM MgCl2, 1 mM ATP, 1 mM EGTA and 20 μg/ml saponin. The non-mitochondrial Ca^2+ stores were then loaded for 45 min in 120 mM KCl, 30 mM imidazole-HCl (pH 6.8), 5 mM MgCl2, 5 mM ATP, 0.44 mM EGTA, 10 mM NaN3 and 150 nM free ^45Ca^2+ (28 μCi/ml). Then, 1 ml of efflux medium containing 120 mM KCl, 30 mM imidazole-HCl (pH 6.8) and 1 mM EGTA was added and replaced every 2 min IP3 (3 μM) was added for 2 min after 10 min of efflux. BH4-Bcl2 peptide (40 μM), in the presence or not of IDPDD/AA peptide (40 μM), was added from 4 min before IP3 to 2 min after IP3. At the end of the experiment, all 45Ca^2+ remaining in the stores was released by incubation with 1 ml of a 2% (w/v) sodium dodecyl sulfate solution for 30 min Ca^2+ release was plotted as fractional loss (%/2 min) as a function of time, as previously described.

Bcl-2-IP3R interaction = biological target: T1, Bcl-2-IP3R interaction (Homo sapiens, UniProt P10415); test: Co-immunoprecipitation assay; format: binding; details: 200 μM peptide, lysate of WEHI7.2 cells overexpressing wild type Bcl-2
T1 construct: expressed in transfected cells; host or cells: WEHI7.2 (murine T cell lymphoma); IP3R endogenous
Method: One hundred million WEHI7.2 cells overexpressing wild type Bcl-2 were washed twice with PBS and then lysed on ice for 30 min in 1 ml CHAPS buffer. The supernatant was prepared by centrifugation for 15 min at 20,000 g at 4° C. The supernatant (1 ml) was mixed with 100 μl 50% protein G in Tris 50 mM pH 7.5 buffer and rotated at 4 C for 2 hrs. After removing the beads, the supernatant was incubated with 200 μM peptide (Scr or IDPDD/AA, or without peptide addition, for 2 hrs at 4° C. Then hamster anti-human Bcl-2 antibody was added (final dilution 1:250) and the supernatant was rotated for 16 hrs at 4 C, followed by rotation in the presence of 50 μl protein G (50% beads) for 2 hours at 4 C. The beads were washed six times with CHAPS buffer and boiled for 5 min in SDS sample buffer followed by resolution of proteins by SDS-PAGE and analysis by western blotting for the IP3R using anti-IP3R antibody (BD Biosciences (Cat #610313) at 1:2,000 dilution and for Bcl-2 as described above.

Jurkat cells = test: Single cell digital imaging of intracellular Ca2+ (Fura-2); format: cell-based, human; details: for effect on percentage of cells displaying peptide-induced Ca2+ oscillations: xestospongin C 10 μM, U73122 0.25 μM, peptide 10 μM, 90 min, FIG. 8A
Method: (§1) WEHI7.2 cells were cultured in DMEM supplemented with 10% fetal calf serum, L-glutamine (2 mM), and nonessential amino acids (100 μM). Transfections of WEHI7.2 cells with expression vectors encoding wild type Bcl-2 and Bcl-2RS/GG were described previously. Jurkat cells and RS11846 cells were cultured in RPMI medium supplemented with 10% fetal bovine serum, L-glutamine (2 mM), and nonessential amino acids (100 μM). Cells were maintained in 5% carbon dioxide at high humidity.
(§2) Methods of Ca^2+ imaging, described in detail previously, were employed here with only minor modification. Briefly, cells adhered to poly-L-lysine-coated coverslips (35-mm coverslip dishes, MatTek Corp., Ashland, Mass.) were loaded with 1 μM Fura-2 AM for 45 min at 25° C. in extracellular buffer (ECB) (130 mM NaCl, 5 mM KCl, 1.5 mM CaCl2, 1 mM MgCl2, 25 mM Hepes, pH 7.5, 1 mg/ml BSA, and 5 mM glucose). The buffer was replaced with fresh ECB and the incubation continued for […] at 25° C. to permit de-esterification. Culture dishes were mounted on the non-heated stage of an inverted microscope (Olympus CKX41) equipped with a 20× Fluor objective. Excitation light was alternated between 340 and 380 nm by a filter wheel (Sutter Instrument Co.), with 0.8 sec and 0.2 sec exposure times respectively, and emitted light was filtered at >510 nm and collected with an intensified charge-coupled device camera (Cooke 12 bit VGA). The video signal was digitized using InCyt Im2 software (Intracellular Imaging) and subsequently processed using Microsoft Excel. To determine Rmin cells were perfused with ECB deficient in Ca^2+ and supplemented with 4 mM EGTA and 10 μM ionomycin. Rmax was obtained by perfusing cells with ECB supplemented with 4 mM CaCl2 and 10 μM ionomycin. […] In most experiments peptides were fused with the cell penetrating peptide of HIV TAT to facilitate uptake by cells. In some experiments peptides, without linkage to TAT, were delivered into cells using Chariot reagent (Active Motif) as previously described. Xestospongin C (Enzo Life Sciences International) and U73122 (Sigma), both dissolved in DMSO, were added to cells […] prior to Ca^2+ measurements.

[2] = system: Bcl-2-positive WEHI7.2 cells; details: data not shown
primary CLL cells [3] = test: Single cell digital imaging of intracellular Ca2+ (Fura-2); format: cell-based, human
Description: (§3) Lymphocytes were freshly separated from heparinized peripheral blood obtained from normal adult volunteers or adult patients with chronic lymphocytic leukemia (CLL) meeting standard diagnostic guidelines. Patients had either never received treatment or had received treatment over two years prior to obtaining samples. We conformed to all guidelines and regulations in accordance with Internal Review Board protocols ICC2902/11-02-28 (Case Western Reserve University Cancer Center/University Hospitals of Cleveland Ireland Cancer Center). Cells were separated by centrifugation through Ficoll-Hypaque and suspended in RPMI medium supplemented with 10% fetal bovine serum, L-glutamine (2 mM), and nonessential amino acids (100 μM) at a density of 2 million cells/ml. Normal CD19+ B cells were pooled from healthy individuals between 26 and 32 years of age, in accordance with IRB-approval (as above). Mononuclear cells were separated by Ficoll-Hypaque centrifugation, and further isolation of B and T cells was achieved by magnetic separation using CD19 microbeads (Miltenyi Biotec, Bergisch Gladbach, Germany).
as §2

primary CLL cells [4] = test: Apoptosis and cell death assays (trypan blue, propidium iodide, Hoechst nuclear morphology, Annexin V); format: cell-based, human
Description: as §3, with “Patients had either never received treatment or had received treatment over two years prior to obtaining samples.” left out
Apoptosis was quantified according to apoptotic nuclear morphology and by detection of phosphatidylserine exposure on the plasma membrane. […] Images were obtained using a chargecoupled device camera (Hamamatsu Photonics, Shizuoka, Japan) and digitally converted by Simple PCI software (Hamamatsu Photonics). Membrane translocation of phosphatidylserine was detected by Annexin V staining. Annexin V-positive cells were assessed by flow cytometry using an ARIA flow cytometer (Beckman Coulter, Pasadena, Calif., USA). All flow cytometry data were analyzed using FlowJo 8.8.4 for Macintosh (Treestar, Ashland, Oreg., USA). Dead cells were identified according to their inability to exclude trypan blue dye or propidium iodide. Trypan blue dye uptake into cells was detected by light microscopy using a 40× objective and quantified by counting up to 400 cells. Propidium iodide uptake was quantified by flow cytometry in association with the Annexin V measurement described above.

Bfl-1 = biological target: T2, Bfl-1 (Homo sapiens, UniProt Q16548); details: read-out: inhibitory concentration of 50% (IC50) for displacing BH3 peptides; cited from earlier work
T2 sequence (Q16548 1-175): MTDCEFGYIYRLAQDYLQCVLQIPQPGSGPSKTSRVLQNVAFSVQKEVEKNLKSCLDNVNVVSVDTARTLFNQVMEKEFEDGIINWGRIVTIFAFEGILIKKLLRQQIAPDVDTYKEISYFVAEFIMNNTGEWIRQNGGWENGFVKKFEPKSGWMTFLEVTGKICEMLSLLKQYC

Bcl-B = biological target: T3, Bcl-B (Homo sapiens, UniProt Q9HD36); details: read-out: inhibitory concentration of 50% (IC50) for displacing BH3 peptides; cited from earlier work
T3 sequence (Q9HD36 1-204): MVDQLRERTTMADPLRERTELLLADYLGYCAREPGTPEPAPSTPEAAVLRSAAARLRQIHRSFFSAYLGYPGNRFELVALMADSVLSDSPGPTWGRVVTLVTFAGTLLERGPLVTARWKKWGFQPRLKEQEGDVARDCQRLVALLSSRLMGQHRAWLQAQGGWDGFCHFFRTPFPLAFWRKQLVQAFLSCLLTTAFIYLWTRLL

Bcl-XL = Bcl-XL (Homo sapiens, UniProt Q07817); details: read-out: inhibitory concentration of 50% (IC50) for displacing BH3 peptides; cited from earlier work
[5] = system: Bcl-2-positive WEHI7.2 cells; test: Single cell digital imaging of intracellular Ca2+ (Fura-2); format: cell-based, murine
Method: as §1
Methods of Ca^2+ imaging, described in detail previously, were employed here with only minor modification. Briefly, cells adhered to poly-L-lysine-coated coverslips (35-mm coverslip dishes, MatTek Corp., Ashland, Mass.) were loaded with 1 μM Fura-2 AM for 45 min at 25° C. in extracellular buffer (ECB) (130 mM NaCl, 5 mM KCl, 1.5 mM CaCl2, 1 mM MgCl2, 25 mM Hepes, pH 7.5, 1 mg/ml BSA, and 5 mM glucose). The buffer was replaced with fresh ECB and the incubation continued for […] at 25° C. to permit de-esterification. Culture dishes were mounted on the non-heated stage of an inverted microscope (Olympus CKX41) equipped with a 20× Fluor objective. […]

Bcl-XL, sequence (Q07817 whole entry, species assumed): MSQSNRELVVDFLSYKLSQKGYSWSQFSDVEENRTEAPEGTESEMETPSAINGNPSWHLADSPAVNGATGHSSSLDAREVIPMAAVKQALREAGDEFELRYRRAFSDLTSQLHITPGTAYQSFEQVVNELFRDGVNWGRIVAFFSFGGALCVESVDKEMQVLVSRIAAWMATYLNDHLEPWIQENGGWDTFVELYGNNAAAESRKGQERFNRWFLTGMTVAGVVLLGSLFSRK
Bcl-2, sequence (P10415 whole entry, species assumed): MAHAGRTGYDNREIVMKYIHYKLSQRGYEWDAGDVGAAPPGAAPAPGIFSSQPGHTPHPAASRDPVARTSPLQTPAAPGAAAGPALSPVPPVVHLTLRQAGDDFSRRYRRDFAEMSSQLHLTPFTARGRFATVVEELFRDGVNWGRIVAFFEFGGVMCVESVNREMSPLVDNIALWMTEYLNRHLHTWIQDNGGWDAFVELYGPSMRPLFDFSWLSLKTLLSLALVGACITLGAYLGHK
T1 sequence (P10415 whole entry): as the sequence (P10415 whole entry, species assumed) above

## NVYTEIKCNSLLPLAAIVRV (listed as Homo sapiens) [IDPDD/AA, IDP with DD/AA substitution, without TAT]
Bcl-2
  interaction with Bcl-2: documented
[1]
  effect on Bcl-2-imposed inhibition of IP3-induced 45Ca2+ efflux from the ER: reversed
Bcl-2-IP3R interaction
  disruption of Bcl-2-IP3R interaction: confirmed

## COc1ccc2c(c1)CC[C@@H]1[C@@H]2CC[C@]2(C)[C@@H](NCCCCCCN3C(=O)C=CC3=O)CC[C@@H]12 [U73122]
Jurkat cells
  effect on percentage of cells displaying peptide-induced Ca2+ oscillations: reduced

## pepstatin A
Jurkat cells; TAT-IDP in Jurkat cells
  effect of pretreatment on amplitude of peptide-induced Ca2+ elevations: significant enhancement
  effect of pretreatment on percentage of cells displaying peptide-induced calcium elevations: slight, but not significant, increase

## RKKRRQRRRGGNVYTEIKCNSLLPLDDIVRV [TAT-IDP]
[2]
  cell viability following treatment: not lost

## CN(C)CCC(CSc1ccccc1)Nc1ccc(S(=O)(=O)NC(=O)c2ccc(N3CCN(Cc4ccccc4-c4ccc(Cl)cc4)CC3)cc2)cc1[N+](=O)[O-] (centres unmarked) [ABT-737, N-[4-[4-(4′-Chloro-biphenyl-2-ylmethyl)-piperazin-1-yl]-benzoyl)-4-(3-dimethylamino-1-phenylsulfanylmethyl-propylamino)-3-nitro-benzenesulfonamide, reference compound]
Primary CLL cells [3]; 2 μM ABT-737, FIG. 11A
  induction of Ca2+ elevation: did not induce Ca^2+ elevation
Primary CLL cells [4]; 2 μM, 24 hr, trypan blue dye uptake, FIG. 11B
  death of CLL cells: 40%

## Cc1cc2c(C(C)C)c(O)c(O)c(C=O)c2c(O)c1-c1c(C)cc2c(C(C)C)c(O)c(O)c(C=O)c2c1O [Gossypol, 1,6,7,1′,6′,7′-Hexahydroxy-5,5′-diisopropyl-3,3′-dimethyl-[2,2′]binaphthalenyl-8,8′-dicarbaldehyde]
Bfl-1
  pIC50: ~6.30
Bcl-B
  pIC50: ~6.30
Bcl-XL
  pIC50: ~6.30

## C1CCC[C@H]2CCCN3CC[C@@H](CCCCCC[C@@H]4CCCN5CC[C@@H](CC1)O[C@@H]45)O[C@@H]23 [xestospongin C, reference compound]
Jurkat cells
  effect on percentage of cells displaying peptide-induced Ca2+ oscillations: reduced
Primary CLL cells [3]; CLL cells
  effect on Ca2+ responses to TAT-IDP and TAT-IDPDD/AA: inhibited
Primary CLL cells [4]; CLL cells
  effect on apoptosis induction by TAT-IDPDD/AA: inhibited

## IDP: synthetic IP3R-derived peptide, 20 amino acid sequence within the Bcl-2-binding site on the IP3R (RKKRRQRRRGGNVYTEIKCNSLLPLDDIVRV; listed as Homo sapiens)
[5]; 2 μM peptide, 70 min recordings, FIG. 2
  number of Ca2+ spikes observed per cell: very infrequent
[5]; peptide introduced by Chariot peptide uptake reagent, data not shown
  induction of Ca2+ elevations: induced Ca^2+ elevations
